Measurements from patent US8846933B2, “N-link hydroxamic acid derivatives useful as antibacterial agents” (Pfizer Inc., priority 2009, dated 2014).

Legend:
[1] = tested on: Escherichia coli EC-1: VOGEL, mouse virulent; test: MIC determination (CLSI), strain EC-1; assay type: cell-based; settings: strain EC-1, unit assumed
Protocol: (§1) The in vitro antibacterial activity of compounds described in the Examples was evaluated by minimum inhibitory concentration (MIC) testing according to Clinical and Laboratory Standards Institute (CLSI, formerly NCCLS) guidelines. See: Clinical and Laboratory Standards Institute. Methods for Dilution Antimicrobial Susceptibility Tests for Bacteria that Grow Aerobically; Approved Standard-Seventh Edition. CLSI document M7-A7 [ISBN 1-56238-587-9]. Clinical and Laboratory Standards Institute, 940 West Valley Road, Suite 1400, Wayne, Pa. 19087-1898 USA, 2006; also Clinical and Laboratory Standards Institute. Performance Standards for Antimicrobial Susceptibility Testing; Eighteenth Informational Supplement. CLSI document M100-S18 [ISBN1-56238-653-0].Clinical and Laboratory Standards Institute.
(§2) The following bacterial strains were used in these MIC determinations:
3) Escherichia coli EC-1: VOGEL, mouse virulent labeled as EC-1 in Tables 4 and 5;

[2] = tested on: Pseudomonas aeruginosa UI-18: Wild-type (PA-7); test: MIC determination (CLSI), strain PA-7; assay type: cell-based; settings: strain PA-7, unit assumed
Protocol: as §1, §2
1) Pseudomonas aeruginosa UI-18: Wild-type, labeled as PA-7 in Tables 4, and 5;

[3] = generated in the same manner as in Table 4

Row | Structure (SMILES) | EC-1 (MIC) [1] | PA-7 (MIC) [2] | EC-1 (MIC) [1, 3] | PA-7 (MIC) [2, 3]
1 | C[C@@](CCn1ccc(-c2ccc3c(c2)CCC3=O)cc1=O)(C(=O)NO)S(C)(=O)=O [Example 339, (2R)-N-hydroxy-2-methyl-2-(methylsulfonyl)-4-[2-oxo-4-(1-oxo-2,3-dihydro-1H-inden-5-yl)pyridin-1(2H)-yl]butanamide] | 4 µg/mL | 4 µg/mL | – | –
2 | C[C@@](CCn1ccc(-c2ccc(-c3ccc(C#N)nc3)cc2)cc1=O)(C(=O)NO)S(C)(=O)=O [Example 415] | 1 µg/mL | 2 µg/mL | – | –
3 | CC(CCn1ccc(-c2ccc(OCCCN3CCCC(F)(F)C3)cc2)cc1=O)(C(=O)NO)S(C)(=O)=O (centres unmarked) [Example 100, 4-[4-{4-[3-(3,3-difluoropiperidin-1-yl)propoxy]phenyl}-2-oxopyridin-1(2H)-yl]-N-hydroxy-2-methyl-2-(methylsulfonyl)butanamide] | – | – | 1 µg/mL | 8 µg/mL
4 | CC(CCn1ccc(-c2ccc(OCCCCO)c(Cl)c2)cc1=O)(C(=O)NO)S(C)(=O)=O (centres unmarked) [Example 238, 4-{4-[3-chloro-4-(4-hydroxybutoxy)phenyl]-2-oxopyridin-1(2H)-yl}-N-hydroxy-2-methyl-2-(methylsulfonyl)butanamide] | 0.5 µg/mL | 4 µg/mL | – | –
5 | CC(CCn1ccc(-c2ccc(C3CCCCC3)cc2)cc1=O)(C(=O)NO)S(C)(=O)=O (centres unmarked) [Example 119, 4-[4-(4-cyclohexylphenyl)-2-oxopyridin-1(2H)-yl]-N-hydroxy-2-methyl-2-(methylsulfonyl)butanamide] | – | – | 0.5 µg/mL | 16 µg/mL
6 | C[C@@](CCn1ccc(-c2ccc3cc(OCCO)ccc3c2)cc1=O)(C(=O)NO)S(C)(=O)=O [Example 314, (2R)-N-hydroxy-4-{4-[6-(2-hydroxyethoxy)-2-naphthyl]-2-oxopyridin-1(2H)-yl}-2-methyl-2-(methylsulfonyl)butanamide] | 0.5 µg/mL | 1 µg/mL | – | –
7 | Cc1ccc2cc(-c3ccn(CCC(C)(C(=O)NO)S(C)(=O)=O)c(=O)c3)ccc2n1 (centres unmarked) [Example 300, N-hydroxy-2-methyl-4-[4-(2-methylquinolin-6-yl)-2-oxopyridin-1(2H)-yl]-2-(methylsulfonyl)butanamide] | 4 µg/mL | 8 µg/mL | – | –
8 | CC(CCn1ccc(-c2ccc(O)cc2)cc1=O)(C(=O)NO)S(C)(=O)=O (centres unmarked) [Example 97, N-hydroxy-4-[4-(4-hydroxyphenyl)-2-oxopyridin-1(2H)-yl]-2-methyl-2-(methylsulfonyl)butanamide] | – | – | > 64 µg/mL | > 64 µg/mL
9 | CC(C#N)Sc1cccc(-c2ccn(CC[C@](C)(C(=O)NO)S(C)(=O)=O)c(=O)c2)c1 (some centres unmarked) [Example 475] | 8 µg/mL | 8 µg/mL | – | –
10 | CN1Cc2ccc(-c3ccn(CCC(C)(C(=O)NO)S(C)(=O)=O)c(=O)c3)cc2C1=O (centres unmarked) [Example 162, N-hydroxy-2-methyl-4-[4-(2-methyl-3-oxo-2,3-dihydro-1H-isoindol-5-yl)-2-oxopyridin-1(2H)-yl]-2-(methylsulfonyl)butanamide] | – | – | > 64 µg/mL | > 64 µg/mL
11 | C[C@@](CCn1ccc(-c2ccc(F)cc2F)cc1=O)(C(=O)NO)S(C)(=O)=O [Example 321, (2R)-4-[4-(2,4-difluorophenyl)-2-oxopyridin-1(2H)-yl]-N-hydroxy-2-methyl-2-(methylsulfonyl)butanamide] | 1 µg/mL | 1 µg/mL | – | –
12 | C[C@@](CCn1ccc(-c2ccc(-c3cnco3)cc2)cc1=O)(C(=O)NO)S(C)(=O)=O [Example 340, (2R)-N-hydroxy-2-methyl-2-(methylsulfonyl)-4-{4-[4-(1,3-oxazol-5-yl)phenyl]-2-oxopyridin-1(2H)-yl}butanamide] | 0.25 µg/mL | 1 µg/mL | – | –
13 | CC(CCn1ccc(-c2cccnc2)cc1=O)(C(=O)NO)S(C)(=O)=O (centres unmarked) [Example 219, N-hydroxy-2-methyl-2-(methylsulfonyl)-4-(2′-oxo-3,4′-bipyridin-1′(2′H)-yl)butanamide] | > 64 µg/mL | > 64 µg/mL | – | –
14 | Cc1cc(-c2ccn(CCC(C)(C(=O)NO)S(C)(=O)=O)c(=O)c2)ccn1 (centres unmarked) [Example 209, N-hydroxy-2-methyl-4-(2′-methyl-2-oxo-4,4′-bipyridin-1(2H)-yl)-2-(methylsulfonyl)butanamide] | 64 µg/mL | 32 µg/mL | – | –
15 | CN1CCN(CCCOc2ccc(-c3ccn(CCC(C)(C(=O)NO)S(C)(=O)=O)c(=O)c3)cc2)CC1 (centres unmarked) [Example 87] | – | – | 64 µg/mL | 32 µg/mL
16 | CC(CCn1ccc(-c2ccc3c(ccn3CCO)c2)cc1=O)(C(=O)NO)S(C)(=O)=O (centres unmarked) [Example 265, N-hydroxy-4-{4-[1-(2-hydroxyethyl)-1H-indol-5-yl]-2-oxopyridin-1(2H)-yl}-2-methyl-2-(methylsulfonyl)butanamide] | 4 µg/mL | 16 µg/mL | – | –

Row | Structure (SMILES) | EC-1 (MIC) [1] | PA-7 (MIC) [2] | EC-1 (MIC) [1, 3] | PA-7 (MIC) [2, 3]
17 | C[C@@](CCn1ccc(-c2cc(Cl)cc(Cl)c2)cc1=O)(C(=O)NO)S(C)(=O)=O [Example 336, (2R)-4-[4-(3,5-dichlorophenyl)-2-oxopyridin-1(2H)-yl]-N-hydroxy-2-methyl-2-(methylsulfonyl)butanamide] | 4 µg/mL | 8 µg/mL | – | –
18 | C[C@@](CCn1ccc(-c2ccc(-n3ccnn3)cc2)cc1=O)(C(=O)NO)S(C)(=O)=O [Example 364, (2R)-N-hydroxy-2-methyl-2-(methylsulfonyl)-4-{2-oxo-4-[4-(1H-1,2,3-triazol-1-yl)phenyl]pyridin-1(2H)-yl}butanamide] | 16 µg/mL | 16 µg/mL | – | –
19 | CC(CCn1ccc(-c2ccc3[nH]ccc3c2)cc1=O)(C(=O)NO)S(C)(=O)=O (centres unmarked) [Example 79] | – | – | 4 µg/mL | 4 µg/mL
20 | CC(CCn1ccc(-c2ccc(-c3ccncc3)c(F)c2)cc1=O)(C(=O)NO)S(C)(=O)=O (centres unmarked) [Example 298, 4-[4-(3-fluoro-4-pyridin-4-ylphenyl)-2-oxopyridin-1(2H)-yl]-N-hydroxy-2-methyl-2-(methylsulfonyl)butanamide] | 0.5 µg/mL | 4 µg/mL | – | –
21 | CC(CCn1ccc(-c2cc(F)c(F)c(F)c2)cc1=O)(C(=O)NO)S(C)(=O)=O (centres unmarked) [Example 130, N-hydroxy-2-methyl-2-(methylsulfonyl)-4-[2-oxo-4-(3,4,5-trifluorophenyl)pyridin-1(2H)-yl]butanamide] | – | – | 16 µg/mL | 8 µg/mL
22 | C/C(=N\O)c1ccc(-c2ccn(CCC(C)(C(=O)NO)S(C)(=O)=O)c(=O)c2)cc1 (centres unmarked) [Example 80, N-hydroxy-4-[4-{4-[(1E)-N-hydroxyethanimidoyl]phenyl}-2-oxopyridin-1(2H)-yl]-2-methyl-2-(methylsulfonyl)butanamide] | – | – | 8 µg/mL | 32 µg/mL
23 | CC(CCn1ccc(-c2ccc(OCCCN3CCSCC3)cc2)cc1=O)(C(=O)NO)S(C)(=O)=O (centres unmarked) [Example 81, N-hydroxy-2-methyl-2-(methylsulfonyl)-4-{2-oxo-4-[4-(3-thiomorpholin-4-ylpropoxy)phenyl]pyridin-1(2H)-yl}butanamide] | – | – | 2 µg/mL | 4 µg/mL
24 | C[C@@](CCn1ccc(-c2ccccc2Cl)cc1=O)(C(=O)NO)S(C)(=O)=O [Example 341, (2R)-4-[4-(2-chlorophenyl)-2-oxopyridin-1(2H)-yl]-N-hydroxy-2-methyl-2-(methylsulfonyl)butanamide] | 4 µg/mL | 2 µg/mL | – | –
25 | CC(CCn1ccc(-c2cccc(C#N)c2)cc1=O)(C(=O)NO)S(C)(=O)=O (centres unmarked) [Example 169, 4-[4-(3-cyanophenyl)-2-oxopyridin-1(2H)-yl]-N-hydroxy-2-methyl-2-(methylsulfonyl)butanamide] | – | – | > 64 µg/mL | 64 µg/mL
26 | CC(CCn1ccc(-c2ccc3ccncc3c2)cc1=O)(C(=O)NO)S(C)(=O)=O (centres unmarked) [Example 261, N-hydroxy-4-(4-isoquinolin-7-yl-2-oxopyridin-1(2H)-yl)-2-methyl-2-(methylsulfonyl)butanamide] | 8 µg/mL | 4 µg/mL | – | –
27 | CC(CCn1ccc(-c2ccc(OCCO)cc2F)cc1=O)(C(=O)NO)S(C)(=O)=O (centres unmarked) [Example 85, 4-{4-[2-fluoro-4-(2-hydroxyethoxy)phenyl]-2-oxopyridin-1(2H)-yl}-N-hydroxy-2-methyl-2-(methylsulfonyl)butanamide] | – | – | 16 µg/mL | 16 µg/mL
28 | Cc1c(-c2ccc(C#N)cc2F)ccn(CC[C@](C)(C(=O)NO)S(C)(=O)=O)c1=O [Example 412, (2R)-4-[4-(4-cyano-2-fluorophenyl)-3-methyl-2-oxopyridin-1(2H)-yl]-N-hydroxy-2-methyl-2-(methylsulfonyl)butanamide] | 8 µg/mL | 4 µg/mL | – | –
29 | CC(CCn1ccc(-c2ccccc2O)cc1=O)(C(=O)NO)S(C)(=O)=O (centres unmarked) [Example 213, N-hydroxy-4-[4-(2-hydroxyphenyl)-2-oxopyridin-1(2H)-yl]-2-methyl-2-(methylsulfonyl)butanamide] | > 64 µg/mL | > 64 µg/mL | – | –
30 | COc1ccc(-c2ccn(CC[C@](C)(C(=O)NO)S(C)(=O)=O)c(=O)c2)c(C)c1 [Example 345, (2R)-N-hydroxy-4-[4-(4-methoxy-2-methylphenyl)-2-oxopyridin-1(2H)-yl]-2-methyl-2-(methylsulfonyl)butanamide] | 4 µg/mL | 4 µg/mL | – | –
31 | Cc1c(-c2ccn(CCC(C)(C(=O)NO)S(C)(=O)=O)c(=O)c2)cnn1-c1ccccc1 (centres unmarked) [Example 203, N-hydroxy-2-methyl-4-[4-(5-methyl-1-phenyl-1H-pyrazol-4-yl)-2-oxopyridin-1(2H)-yl]-2-(methylsulfonyl)butanamide] | 64 µg/mL | > 64 µg/mL | – | –
